{"source": "patent US12201725B2", "about": "“Dry powder compositions of treprostinil prodrugs and methods of use thereof” (Insmed Incorporated, priority 2019, dated 2025)", "origin": "cited, not measured here", "key": {"[1]": {"tested_on": "hypoxia-induced increase in right ventricular pulse pressure (RVPP)", "conditions": "inhaled, comparison, not tested in Example 5"}, "[2]": {"conditions": "guinea pigs, comparison, not tested in Example 6"}}, "note": "Like-named read-outs stand apart in the source and are kept apart here."}
{"smiles": "CCCCC[C@H](O)CC[C@@H]1[C@H]2Cc3cccc(OCC(=O)O)c3C[C@H]2C[C@H]1O", "note": "[treprostinil]", "values": [{"measurement": "Duration of inhibition of the hypoxia-induced increase in RVPP", "setting": "[1]; highest dose 215 μg/kg", "value": 2, "unit": "h"}, {"measurement": "Duration of inhibition of the hypoxia-induced increase in RVPP", "setting": "[1]; lower doses 15, 53, or 110 μg/kg", "value": 1, "unit": "h"}, {"measurement": "Timing of cough", "setting": "[2]; nebulized", "value": "≤ 10", "unit": "min"}, {"measurement": "Threshold dose of inhaled TRE that causes cough", "setting": "[2]", "value": 1.23, "unit": "µg/kg"}]}
